Read-outs that look alike come from different tables or passages of the source.
Tests used:
[1] = Population pharmacokinetic model of quizartinib (NONMEM v7.5) applied to the external evaluation dataset; type: in vivo, human; conditions: popPK estimates
Source text: Parameter values and covariate relationships were fixed according to those reported in the original publication, without any re-estimation or modification. Key model parameters were described at Table 2: Predictions were generated using recorded doses, sampling times, and covariate values from the evaluation dataset.

[2] = single oral dose of 60 mg [14C]-quizartinib, six healthy men; cited from earlier work
[3] = FLT3-ITD negative AML patients, steady state

bioavailability ([1]; human, plasma, oral, FLT3-ITD negative AML patients, steady state, read-out: F1 Bioavailability, Mean): 77%
bioavailability ([1]; human, plasma, oral, FLT3-ITD negative AML patients, steady state, read-out: F1 Bioavailability, Median): 75%
Vd ([1]; human, plasma, oral, FLT3-ITD negative AML patients, steady state, read-out: V2 Volume of distribution (central compartment), Mean): 219 L
Vd ([1]; human, plasma, oral, FLT3-ITD negative AML patients, steady state, read-out: V2 Volume of distribution (central compartment), Median): 227 L
half-life ([1]; human, plasma, oral, FLT3-ITD negative AML patients, steady state, read-out: t1/2 Half-life, Mean (converted)): 82.4 h
half-life ([1]; human, plasma, oral, FLT3-ITD negative AML patients, steady state, read-out: t1/2 Half-life, Median (converted)): 82.5 h
bioavailability ([1]; human, plasma, oral, median, read-out: bioavailability factor (F1), median): 75%
clearance ([1]; human, plasma, oral, median, read-out: median clearance (CL) (converted)): 29.3 mL/min
CL Clearance, Median [1, 3]: 1.76
KA Absorption rate constant, Mean [1, 3]: 1.68
KA Absorption rate constant, Median [1, 3]: 1.68
KE Elimination rate constant, Mean [1, 3]: 0.01
KE Elimination rate constant, Median [1, 3]: 0.01
CL Clearance, Mean ([1]; FLT3-ITD negative AML patients, steady state, oral quizartinib 30 mg daily with food (one patient 60 mg)): 1.97
V3 (peripheral compartment), median ([1]; median): 176.03 L
V4, median ([1]; median): 39.30 L
SMILES: CC(C)(C)c1cc(NC(=O)Nc2ccc(-c3cn4c(n3)sc3cc(OCCN5CCOCC5)ccc34)cc2)no1 [quizartinib]
time of maximum blood concentration post-dosing [2]: four
